Reference: article PMC2189693 (The Journal of Experimental Medicine, 1988)

System: anti-al mAb, 3-2F1
Type: binding, mouse
Conditions: for Inhibition of binding of rabbit a1 Ig to anti-a1 antibody (in words): RIA with mAb 3-2F1, 24 h preincubation of inhibitor, result in words

expression of an a1 epitope (in words) (conclusion from peptide inhibition of al Ig binding to anti-al) | Substance | Inhibition of binding of rabbit a1 Ig to anti-a1 antibody (in words)
 | IGYIYPNIDDSAY_SQ [SMA1] | Neither the substituted peptide, SMA1, nor the control peptide, UB1, inhibited binding
each appear to define an al epitope | IT_SPTTEDTAT_YFCA [RA1] | 
 | MQIFVKTLTGKDPGG [UB1, reference compound] | Neither the substituted peptide, SMA1, nor the control peptide, UB1, inhibited binding
